The record followed here is patent US8178506B2, “Oligomeric compounds and compositions for use in modulation of small non-coding RNAs” (Regulus Therapeutics Inc., priority 2003, dated 2012).

In the oligonucleotide strings, read from the 5' end, every base follows the letter of its sugar. An asterisk marks phosphorothioate; unmarked linkages are phosphodiester. Other units and linkages are bracketed, terminal groups are in braces. A string of capitals states the bases alone. e = 2'-O-(2-methoxyethyl) (MOE); [5mC] = 5-methylcytosine

Assay type in all cases: cell-based, human
For one data set, the system named is PEPCK-c. The experiment in a line: PEPCK-c mRNA expression in HepG2 cells. The following applies: for PEPCKc mRNA expression: Experiment 2, insulin treated: HepG2 cells transfected with oligomeric compound, 1 nM insulin for four hours, UTC + 1 nM insulin = 100; for PEPCKc mRNA: HepG2 cells, Experiment 1, basal (no insulin), four hours, UTC = 100.
The test system of a further data set is follistatin. The experiment in a line: Follistatin mRNA expression in HepG2 cells. The note with it: for Follistatin mRNA expression: Experiment 2, insulin treated: HepG2 cells transfected with oligomeric compound, 1 nM insulin for four hours, UTC + 1 nM insulin = 100; for Follistatin mRNA: HepG2 cells, Experiment 1, basal (no insulin), four hours, UTC = 100.

A further data set deals with adipocytes. The experiment in a line: Triglyceride accumulation assay in adipocytes. The following applies: differentiating adipocytes transfected with oligomeric compound; Table 75.

For the substance “CTAGTGGTCCTAAACATTTCAC (chemistry not given here) [ISIS 327878, uniform 2′-MOE PS; targets mir-203]”, in the data set on PEPCK-c (HepG2, 1 nM insulin, 100 nM), the “reduction of PEPCK-c mRNA expression” value turned out to be 71%. In the data set with PEPCK-c (HepG2, basal (no insulin), 100 nM), the “decrease in PEPCK-c mRNA” value worked out at 55%.

Turning to “327946 (antisense eA*eG*eG*e[5mC]*eG*eA*eA*eG*eG*eA*eT*eG*eA*e[5mC]*eA*eA*eA*eG*eG*eG*eA*eA) [compound 327946]”, in the data set on PEPCK-c, the “PEPCKc mRNA expression” value is recorded as 99 and the “PEPCKc mRNA” value is on record as 90. In the data set with follistatin, the “Follistatin mRNA expression” value was 109 and the “Follistatin mRNA” value was 103. Moreover, the “TG (triglyceride accumulation)” value with adipocytes was 82 percentage of untreated control (UTC).

As to “327950 (antisense eT*e[5mC]*eA*eG*eT*eT*eT*eT*eG*e[5mC]*eA*eT*eA*eG*eA*eT*eT*eT*eG*e[5mC]*eA*e[5mC]*eA) [compound 327950]”, in the data set on PEPCK-c, the “PEPCKc mRNA expression” value worked out at 82 and the “PEPCKc mRNA” value was determined as 65. In addition, in the data set on follistatin, the “Follistatin mRNA expression” value came out at 89 and the “Follistatin mRNA” value stood at 83. Further, the “TG (triglyceride accumulation)” value in the data set on adipocytes is listed as 125 percentage of untreated control (UTC).

Take “327944 (antisense eA*eA*eA*eG*eT*eG*eT*e[5mC]*eA*eG*eA*eT*eA*e[5mC]*eG*eG*eT*eG*eT*eG*eG) [compound 327944]”: in the data set with adipocytes, the “TG (triglyceride accumulation)” value is on record as 38 percentage of untreated control (UTC).

On to “327940 (antisense eG*eA*eA*e[5mC]*eA*eG*eG*eT*eA*eG*eT*e[5mC]*eT*eG*eA*eA*e[5mC]*eA*e[5mC]*eT*eG*eG*eG) [compound 327940]”, for which the “TG (triglyceride accumulation)” value in the data set with adipocytes was 62 percentage of untreated control (UTC).

As for “327936 (antisense eA*e[5mC]*eA*eG*e[5mC]*eT*eG*eG*eT*eT*eG*eA*eA*eG*eG*eG*eG*eA*e[5mC]*e[5mC]*eA*eA) [compound 327936]”, the “TG (triglyceride accumulation)” value in the data set on adipocytes was 23 percentage of untreated control (UTC).

With “327945 (antisense e[5mC]*eT*eG*eT*eT*e[5mC]*e[5mC]*eT*eG*e[5mC]*eT*eG*eA*eA*e[5mC]*eT*eG*eA*eG*e[5mC]*e[5mC]*eA) [compound 327945]”, the “TG (triglyceride accumulation)” value in the data set with adipocytes is reported as 48 percentage of untreated control (UTC).

“327952 (antisense e[5mC]*eT*eA*e[5mC]*eG*e[5mC]*eG*eT*eA*eT*eT*e[5mC]*eT*eT*eA*eA*eG*e[5mC]*eA*eA*eT*eA) [compound 327952]”: in the data set on PEPCK-c, the “PEPCKc mRNA expression” value was 85 and the “PEPCKc mRNA” value turned out to be 70. Also, in the data set on follistatin, the “Follistatin mRNA expression” value is recorded as 100 and the “Follistatin mRNA” value is 93. Moreover, in the data set on adipocytes, the “TG (triglyceride accumulation)” value is listed as 93 percentage of untreated control (UTC).

For “327873 (antisense e[5mC]*eT*eA*e[5mC]*e[5mC]*eA*eT*eA*eG*eG*eG*eT*eA*eA*eA*eA*e[5mC]*e[5mC]*eA*e[5mC]*eT) [compound 327873]”, in the data set with PEPCK-c, the “PEPCKc mRNA” value stood at 72. Besides, the “Follistatin mRNA” value in the data set on follistatin was determined as 97. Moreover, the “TG (triglyceride accumulation)” value in the data set on adipocytes is given as 105 percentage of untreated control (UTC).

In the case of “327965 (antisense eA*eT*e[5mC]*eA*e[5mC]*eA*eT*eA*eG*eG*eA*eA*eT*eA*eA*eA*eA*eA*eG*e[5mC]*e[5mC]*eA*eT*eA) [compound 327965]”, in the data set with PEPCK-c, the “PEPCKc mRNA expression” value is 64 and the “PEPCKc mRNA” value is given as 63. Moreover, in the data set with follistatin, the “Follistatin mRNA expression” value came to 79 and the “Follistatin mRNA” value came to 95. The “TG (triglyceride accumulation)” value in the data set on adipocytes is 116 percentage of untreated control (UTC).

“327949 (antisense e[5mC]*eA*e[5mC]*eA*eA*eA*eT*eT*e[5mC]*eG*eG*eA*eT*e[5mC]*eT*eA*e[5mC]*eA*eG*eG*eG*eT*eA) [compound 327949]”: in the data set with PEPCK-c, the “PEPCKc mRNA expression” value was found to be 101 and the “PEPCKc mRNA” value is listed as 81. Also, in the data set with follistatin, the “Follistatin mRNA expression” value turned out to be 111 and the “Follistatin mRNA” value is 112. For the same substance, the “TG (triglyceride accumulation)” value in the data set with adipocytes is recorded as 43 percentage of untreated control (UTC).

Take “327935 (antisense e[5mC]*eT*eA*e[5mC]*e[5mC]*eT*eG*e[5mC]*eA*e[5mC]*eT*eA*eT*eA*eA*eG*e[5mC]*eA*e[5mC]*eT*eT*eT*eA) [compound 327935]”: the “TG (triglyceride accumulation)” value in the data set on adipocytes is 41 percentage of untreated control (UTC).

Take “327957 (antisense e[5mC]*eA*e[5mC]*eA*eA*eG*eT*eT*e[5mC]*eG*eG*eA*eT*e[5mC]*eT*eA*e[5mC]*eG*eG*eG*eT*eT) [compound 327957]”: in the data set with PEPCK-c, the “PEPCKc mRNA expression” value is listed as 88 and the “PEPCKc mRNA” value was found to be 59. In the data set with follistatin, the “Follistatin mRNA expression” value turned out to be 73 and the “Follistatin mRNA” value is 69. Moreover, the “TG (triglyceride accumulation)” value in the data set with adipocytes was 29 percentage of untreated control (UTC).

In the case of “327961 (antisense eG*eG*eG*eG*eT*eA*eT*eT*eT*eG*eA*e[5mC]*eA*eA*eA*e[5mC]*eT*eG*eA*e[5mC]*eA) [compound 327961]”, in the data set on PEPCK-c, the “PEPCKc mRNA expression” value stood at 126 and the “PEPCKc mRNA” value is 98. Besides, in the data set with follistatin, the “Follistatin mRNA expression” value is on record as 128 and the “Follistatin mRNA” value is 113. For the same substance, the “TG (triglyceride accumulation)” value in the data set on adipocytes is given as 77 percentage of untreated control (UTC).

In the case of “327971 (antisense eG*eG*eA*eA*eA*eT*e[5mC]*e[5mC]*e[5mC]*eT*eG*eG*e[5mC]*eA*eA*eT*eG*eT*eG*eA*eT) [compound 327971]”, the “TG (triglyceride accumulation)” value with adipocytes is reported as 45 percentage of untreated control (UTC).

Take “327964 (antisense e[5mC]*e[5mC]*eA*eA*eG*eT*eT*e[5mC]*eT*eG*eT*e[5mC]*eA*eT*eG*e[5mC]*eA*e[5mC]*eT*eG*eA) [compound 327964]”: in the data set with PEPCK-c, the “PEPCKc mRNA expression” value turned out to be 122 and the “PEPCKc mRNA” value is listed as 74. For the same substance, in the data set on follistatin, the “Follistatin mRNA expression” value is reported as 114 and the “Follistatin mRNA” value is 97. Besides, in the data set with adipocytes, the “TG (triglyceride accumulation)” value was 60 percentage of untreated control (UTC).

For “327958 (antisense e[5mC]*e[5mC]*eG*eG*e[5mC]*eT*eG*e[5mC]*eA*eA*e[5mC]*eA*e[5mC]*eA*eA*eG*eA*e[5mC]*eA*e[5mC]*eG*eA) [compound 327958]”, in the data set with PEPCK-c, the “PEPCKc mRNA expression” value came out at 106 and the “PEPCKc mRNA” value is reported as 73. In the data set on follistatin, the “Follistatin mRNA expression” value was 112 and the “Follistatin mRNA” value stood at 91. Also, the “TG (triglyceride accumulation)” value in the data set on adipocytes was 28 percentage of untreated control (UTC).

In the case of “327959 (antisense e[5mC]*eA*eG*e[5mC]*e[5mC]*eG*e[5mC]*eT*eG*eT*e[5mC]*eA*e[5mC]*eA*e[5mC]*eG*e[5mC]*eA*e[5mC]*eA*eG) [compound 327959]”, in the data set with PEPCK-c, the “PEPCKc mRNA expression” value worked out at 156 and the “PEPCKc mRNA” value was determined as 139. In the data set with follistatin, the “Follistatin mRNA expression” value is on record as 92 and the “Follistatin mRNA” value came out at 98. In the data set on adipocytes, the “TG (triglyceride accumulation)” value is on record as 33 percentage of untreated control (UTC).

For “327963 (antisense eA*eA*e[5mC]*e[5mC]*eT*eA*eT*e[5mC]*e[5mC]*eT*eG*eA*eA*eT*eT*eA*e[5mC]*eT*eT*eG*eA*eA) [compound 327963]”, in the data set with PEPCK-c, the “PEPCKc mRNA expression” value amounted to 94 and the “PEPCKc mRNA” value is on record as 92. For the same substance, in the data set on follistatin, the “Follistatin mRNA expression” value is reported as 95 and the “Follistatin mRNA” value worked out at 101. Further, in the data set on adipocytes, the “TG (triglyceride accumulation)” value is on record as 124 percentage of untreated control (UTC).
